Where two headings read alike, the source gives them in different places.
Assays:
[1] = tested on: HCV Replicon (HCV IRES driven luciferase reporter) in Huh-Luc-Neo cells; assay: HCV Replicon Luciferase Assay; type: cell-based; conditions: Hepatitis C virus, 48 h
Method: (§1) The identification of inhibitors of HCV replication and/or proliferation has been facilitated by the development of a cell based system to study HCV replication and assay for HCV inhibitors. Inhibition of HCV replication may be performed using the HCV Replicon Assay developed in the laboratories of Bartenschlager (Lohman et al, Science 285, 110-113, 1999) and Rice (Blight et al, Science 290, 1972-1974, 2000). The assay is performed using the Huh-Luc-Neo cell line (Lohman et al, Science 285, 110-113, 1999). Huh-Luc-Neo cells are a human hepatoma cell line (Huh-7) stably expressing a bi-cistronic subgenomic replicon containing the HCV IRES in which the […] of HCV had been deleted and replaced by a construct containing sequences coding for the firefly luciferase reporter gene, the neomycin selectable marker and the EMCV IRES to direct expression of a truncated HCV genome expressing the […] NS3, NS4A, NS4B, NS5A, and NS5B. HCV targets through which inhibitors could act to inhibit replication include the NS3 protease, the helicase/ATPase, NS5A, the NS5B-RNA dependent RNA polymerase, and the HCV IRES.
(§2) Expression of HCV IRES driven luciferase reporter activity and HCV RNA is measured to obtain indirect and direct measures of replication of HCV RNA respectively. Inhibitors of HCV replication and/or proliferation are determined by initially identifying molecules that inhibit expression of the HCV IRES driven luciferase reporter in this HCV Replicon Luciferase Assay. Cell viability assays and control cell based luciferase assays are then run on hits identified in the HCV Replicon Luciferase Assay to eliminate cytoxic compounds and non-specific compounds which act by inhibiting the luciferase enzyme.
Day 0, Cell Seeding and Compound Treatment: Huh-Luc-Neo Cells are seeded at 25,000/well in an opaque-walled 96 plate with Growth Medium (DMEM phenol red free+PS+2 mM glutamine; 100 μl/well). The compounds to be tested are added to the experimental wells (10 μl/well at 10× assay concentration) and the cells are then incubated (5% CO2, 37° C.) for 48 h.
(§3) Day 2, Reagent Preparation and Luciferase Assay: The Bright-Glo Luciferase Assay Buffer (Promega) is thawed and equilibrated to room temperature prior to use. The lyophilized Bright-Glo Luciferase Assay Substrate is equilibrated to room temperature prior to use. 10 ml of Bright-Glo Luciferase Assay Buffer is transferred to 1 vial of Bright-Glo Luciferase Assay Substrate bottle and mixed by gently with a Vortex. 100 ul of Bright-Glo Luciferase Assay reagent (Bright-Glo Luciferase Assay Buffer+Bright-Glo Luciferase Assay Substrate Mixture) is added to each well. The well contents are mixed for 5 min. on an orbital shaker at room temperature to induce cell lysis and the luminescence is then measured using a luminometer. The data is analyzed and IC50s are determined using GraphPad Prism 4 software. Hits validated in the Replicon Luciferase assay have IC50s<8.0 μM and show <30% inhibition of Cell Viability at a compound concentration of 100 μM (Cell Titer Glow Assay, cell viability assay conditions identical to HCV Replicon Luciferase Assay conditions).

[2] = tested on: HCV RNA (HCV Replicon) in Huh-Luc-Neo cells; assay: HCV Replicon RNA Assay (Taqman quantitative PCR); type: cell-based; conditions: Hepatitis C virus, 48 h, 2 compound treatments over 48 h, no unit printed in table (b307 gives IC50s in μM)
Method: as §1, §2
Day 0, Cell Seeding and Compound Treatment: Huh-Luc-Neo Cells are seeded at 25,000/well in an opaque-walled 96 plate with Growth Medium (DMEM phenol red free+PS+2 mM glutamine; 100 μl/well). The compounds to be tested are added to the experimental wells (10 μl/well at 10× assay concentration) and the cells are then incubated (5% CO2, 37° C.).
Day 1, Media Change and Compound Treatment: 24 hours after the initial compound treatment the cell culture media is aspirated from the wells and fresh Growth Medium is added (DMEM phenol red free+PS+2 mM glutamine; 100 μl/well). The compounds to be tested are then added to the appropriate experimental wells (10 μl/well at 10× assay concentration) and the cells are then incubated (5% CO2, 37° C.) for an additional 24 hrs.
Day 2, RNA Isolation and cDNA Synthesis: The cells are washed with 1× Phosphate Buffered Saline (PBS) once.
(§4) Day 3, Quantitative PCR Based Measurement of HCV RNA (Taqman Assay): Quantitative PCR analysis to measure HCV RNA expression from cDNA synthesized on Day 2 is performed using the ABI 9700 HT Sequence Detection System (Applied Biosystems) as previously described (Lohman et al, Science 285, 110-113, 1999). The data is analyzed and IC50s are determined using GraphPad Prism 4 software. Hits validated in the Replicon RNA Assay have IC50s<8.0 μM and show <30% inhibition of Cell Viability at a compound concentration of 50 μM (Cell Titer Glow Assay, cell viability assay conditions identical to HCV Replicon RNA Assay conditions).

Huh-Luc-Neo cells = assay: Cell Titer-Glo Cell Viability Assay; type: cell-based, human; conditions: for Toxicity % Inhibition at 50 μM (2 doses): inhibition of cell viability at 50 μM, conditions identical to HCV Replicon RNA Assay; for Toxicity % Inhibition at 100 μM (1 dose): inhibition of cell viability at 100 μM, conditions identical to HCV Replicon Luciferase Assay (48 h)
Method: as §3, §4
Day 0, Cell Seeding and Compound Treatment: Huh-Luc-Neo Cells are seeded at 25,000/well in an opaque-walled 96 plate with Growth Medium (DMEM phenol red free+PS+2 mM glutamine; 100 ul/well).
Day 2, Reagent Preparation and Assay: The CellTiter-Glo Buffer is thawed and equilibrated to room temperature prior to use. The lyophilized CellTiter-Glo Substrate is equilibrated to room temperature prior to use. 10 ml of CellTiter-Glo Buffer is transferred to 1 vial of CellTiter-Glo Substrate and mixed by gently with a Vortex. 100 μl of CellTiter-Glo Assay reagent (CellTiter-Glo Buffer+CellTiter-Glo Substrate Mixture) is added to each well. The well contents are mixed for 5 min. on an orbital shaker at room temperature to induce cell lysis and the luminescence is then measured using a luminometer.

[3] = Huh-Luc-Neo cells, no unit printed in table (b301 gives IC50s in μM), read-out: Luciferase IC50
[4] = read-out: Luciferase IC50, Huh-Luc-Neo cells, 48 h, no unit printed in table (b301 gives IC50s in μM)

## Cn1nc(-c2ccccc2O)c(C#CCCCC#N)c1-c1ccccc1 [VQ_30716]
[1]; [3]
  IC50: 3.96 µM
[2]
  IC50: 0.11 µM
Huh-Luc-Neo cells
  Toxicity % Inhibition at 50 μM (2 doses): 6.8%
  Toxicity % Inhibition at 100 μM (1 dose): 13.7%

## Cn1cc(C#CC(C)(C)C)c(-c2cc([N+](=O)[O-])ccc2OCc2c(F)cccc2F)n1 [VQ_33518]
[1]; [3]
  IC50: 1.85 µM
[2]
  IC50: 0.42 µM
Huh-Luc-Neo cells
  Toxicity % Inhibition at 50 μM (2 doses): 22.8%
  Toxicity % Inhibition at 100 μM (1 dose): 40.4%

## Cn1cc(CCC(C)(C)C)c(-c2cc(NC(=O)c3cccc(Cl)c3F)ccc2O)n1 [VQ_34072]
[1]; [3]
  IC50: 2.87 µM
[2]
  IC50: 1.09 µM
Huh-Luc-Neo cells
  Toxicity % Inhibition at 50 μM (2 doses): 6.2%
  Toxicity % Inhibition at 100 μM (1 dose): 4.2%

## COc1ccc(O)c(-c2nn(C)cc2C#CC(C)(C)C)c1 [VQ_34145]
[1]; [3]
  IC50: 1.87 µM
[2]
  IC50: 0.82 µM
Huh-Luc-Neo cells
  Toxicity % Inhibition at 50 μM (2 doses): 13.1%
  Toxicity % Inhibition at 100 μM (1 dose): 19.8%

## Cn1nc(-c2cc(Br)ccc2O)c(C#CC(C)(C)C)c1C#CCCCC#N [VQ_34298]
[1]; [3]
  IC50: 5.5 µM
[2]
  IC50: 3.86 µM
Huh-Luc-Neo cells
  Toxicity % Inhibition at 50 μM (2 doses): 23.9%
  Toxicity % Inhibition at 100 μM (1 dose): 18.3%

## Cn1cc(C#CC(C)(C)C)c(-c2cc(C#Cc3ccc(Cl)cc3)ccc2O)n1 [VQ_34394]
[1]; [3]
  IC50: 4.8 µM
[2]
  IC50: 1.07 µM
Huh-Luc-Neo cells
  Toxicity % Inhibition at 50 μM (2 doses): 24.5%
  Toxicity % Inhibition at 100 μM (1 dose): 31.8%

## Cn1cc(C#CC(C)(C)C)c(-c2cc(C#CCC3CCCCC3)ccc2O)n1 [VQ_34395]
[1]; [3]
  IC50: 3.7 µM
[2]
  IC50: 0.68 µM
Huh-Luc-Neo cells
  Toxicity % Inhibition at 50 μM (2 doses): 23.6%
  Toxicity % Inhibition at 100 μM (1 dose): 45.4%

## Cn1cc(C#CC2CC2)c(-c2cc(Br)ccc2O)n1 [VQ_34432]
[1]; [3]
  IC50: 11.5 µM
[2]
  IC50: 0.82 µM
Huh-Luc-Neo cells
  Toxicity % Inhibition at 50 μM (2 doses): 8.2%
  Toxicity % Inhibition at 100 μM (1 dose): 45.5%

## Cn1cc(C#CC(C)(C)C)c(-c2cc(-c3cccc(Cl)c3)ccc2O)n1 [VQ_35543]
[1]; [3]
  IC50: 10.1 µM
[2]
  IC50: 2.16 µM
Huh-Luc-Neo cells
  Toxicity % Inhibition at 50 μM (2 doses): 8.2%
  Toxicity % Inhibition at 100 μM (1 dose): 25.3%

## Cn1cc(C#CC(C)(C)C)c(-c2cc(NC(=O)c3ccc(Cl)c(Cl)c3)ccc2O)n1 [VQ_35556]
[1]; [3]
  IC50: 9.3 µM
[2]
  IC50: 0.99 µM
Huh-Luc-Neo cells
  Toxicity % Inhibition at 50 μM (2 doses): 13.7%
  Toxicity % Inhibition at 100 μM (1 dose): 28.8%

## Cn1cc(C#CC(C)(C)C)c(-c2cc(NC(=O)c3cccc(Cl)c3)ccc2O)n1 [VQ_35559]
[1]; [3]
  IC50: 9.5 µM
[2]
  IC50: 1.98 µM
Huh-Luc-Neo cells
  Toxicity % Inhibition at 50 μM (2 doses): 15.8%
  Toxicity % Inhibition at 100 μM (1 dose): 24.2%

## CC(=O)c1ccc(N2CCN(C(=O)c3c(C#CC(C)(C)C)c(-c4cc(Cl)ccc4O)nn3C)CC2)cc1 [VQ_36649]
[1]; [3]
  IC50: 9.7 µM
[2]
  IC50: 0.4 µM
Huh-Luc-Neo cells
  Toxicity % Inhibition at 50 μM (2 doses): 12.1%
  Toxicity % Inhibition at 100 μM (1 dose): 7.3%

## C=CCNc1ccc([N+](=O)[O-])cc1-c1nn(C)cc1C#CC(C)(C)C [VQ_36658]
[1]; [3]
  IC50: 0.04 µM
[2]
  IC50: 0.4 µM
Huh-Luc-Neo cells
  Toxicity % Inhibition at 50 μM (2 doses): 38.8%
  Toxicity % Inhibition at 100 μM (1 dose): 21.8%

## Cn1cc(C#CC(C)(C)C)c(-c2cc([N+](=O)[O-])ccc2NCc2cc(F)cc(F)c2)n1 [VQ_36659]
[1]; read-out: Luciferase IC50
  IC50: 0.04 µM
[2]
  IC50: 0.3 µM
Huh-Luc-Neo cells
  Toxicity % Inhibition at 50 μM (2 doses): 21.9%
  Toxicity % Inhibition at 100 μM (1 dose): 13.0%

## Cn1cc(C#CC(C)(C)C)c(-c2cc([N+](=O)[O-])ccc2NCC(C)(C)CNc2ccc([N+](=O)[O-])cc2-c2nn(C)cc2C#CC(C)(C)C)n1 [VQ_36660]
[1]; [4]
  IC50: 10.4 µM
[2]
  IC50: 0.59 µM
Huh-Luc-Neo cells
  Toxicity % Inhibition at 50 μM (2 doses): 15.8%
  Toxicity % Inhibition at 100 μM (1 dose): 15.3%

## Cn1cc(C#CC(C)(C)C)c(-c2cc([N+](=O)[O-])ccc2NC2CCCCC2)n1 [VQ_36661]
[1]; [3]
  IC50: 0.63 µM
[2]
  IC50: 0.55 µM
Huh-Luc-Neo cells
  Toxicity % Inhibition at 50 μM (2 doses): 14.4%
  Toxicity % Inhibition at 100 μM (1 dose): 9.5%

## Cn1cc(C#CC(C)(C)C)c(-c2cc([N+](=O)[O-])ccc2NCc2c(F)cccc2F)n1 [VQ_36665]
[1]; [3]
  IC50: 0.03 µM
[2]
  IC50: 0.72 µM
Huh-Luc-Neo cells
  Toxicity % Inhibition at 50 μM (2 doses): 25.6%
  Toxicity % Inhibition at 100 μM (1 dose): 12.8%

## CC(Nc1ccc([N+](=O)[O-])cc1-c1nn(C)cc1C#CC(C)(C)C)c1ccccc1 (centres unmarked) [VQ_36666]
[1]; [3]
  IC50: 0.35 µM
[2]
  IC50: 0.38 µM
Huh-Luc-Neo cells
  Toxicity % Inhibition at 50 μM (2 doses): 19.0%
  Toxicity % Inhibition at 100 μM (1 dose): 12.9%

## Cc1cnc(Nc2ccc([N+](=O)[O-])cc2-c2nn(C)cc2C#CC(C)(C)C)s1 [VQ_36669]
[1]; [3]
  IC50: 0.01 µM
[2]
  IC50: 0.9 µM
Huh-Luc-Neo cells
  Toxicity % Inhibition at 50 μM (2 doses): 26.7%
  Toxicity % Inhibition at 100 μM (1 dose): 23.2%

## Cn1cc(C#CC(C)(C)C)c(-c2cc([N+](=O)[O-])ccc2NCCCNc2ccc([N+](=O)[O-])cc2-c2nn(C)cc2C#CC(C)(C)C)n1 [VQ_36673]
[1]; [4]
  IC50: 2.09 µM
[2]
  IC50: 0.42 µM
Huh-Luc-Neo cells
  Toxicity % Inhibition at 50 μM (2 doses): 19.7%
  Toxicity % Inhibition at 100 μM (1 dose): 15.9%

Reference: patent US8329703B2, “Pyrazole compounds” (XTL Biopharmaceuticals Ltd., priority 2005, dated 2012)
